Consider two molecules from US20240317722A1, “HETEROARYL-3-PIPERIDINEDIONE COMPOUND AND USE THEREOF” (Medshine Discovery Inc., priority 2021, published 2024).

One series relates to DMS114. Kind of series: Anti-proliferative effect in DMS114 (CellTiter-Glo). In kind it is cell-based. Conditions: DMS114, 3 days; for IC50: Homo sapiens, DMS-114, 72 h. The protocol: This assay studied the inhibitory effect of the compounds on cell proliferation by detecting the effect of the test compounds on the in vitro activity of tumor cells NCI-H1581, DMS114, NCI-H69 and NCI-H526.
The tumor cell lines were cultured in an incubator at 37° C., 5% CO2 or 0% CO2 according to the above culture conditions. The cells were periodically passaged, and cells in logarithmic growth phase were taken for plating. • 2. Cell plating • (1). Cells were stained with trypan blue and viable cells were counted.
• (3). 100 μL of cell suspension was added to each well of the culture plate, and culture medium without cells was added to the blank control well. • (4). The plate was incubated overnight in an incubator at 37° C., 5% CO2 or 0% CO2, and 100% relative humidity. • 3. Preparation of compound stock solution
Preparation of 1000× compound stock solution: Compound was dissolved in DMSO to 10 mM, then a portion was taken out and diluted to 1000 times the highest acting concentration. The diluted stock solution was dispensed for later use. • 4. Preparation of 5× compound working solution and treatment of cells with compounds. The working solutions were prepared freshly at each time for use. • (1). Preparation of 5× compound working solution: 119.4 μL of cell culture medium was added to a 96-well plate with a V-shaped bottom. 96 μL of DMSO-cell culture medium mix solution (with DMSO content of 0.5%) was added to subsequent gradient wells. 0.6 μL of the compound from the 1000× compound stock solution was added to the cell culture medium in the 96-well plate, and mixed to uniform with a pipette. A pipette was used to draw 24 μL of the compound-cell culture medium mixture into subsequent wells, and the mixture was mixed well by a pipette each time. • (2). Dosing: 25 μL of 5× compound working solution was added to the cell culture plate. 25 μL of DMSO-cell culture medium mix solution (with DMSO content of 0.5%) was added to the vehicle control and blank control. • (3). The 96-well cell plate was placed back into the incubator and cultured for 3 days. • 5. CellTiter-Glo luminescence cell viability detection
The following steps were performed according to the instruction of Promega CellTiter-Glo luminescence cell viability detection kit (Promega-G7573). • (1). The CellTiter-Glo buffer was thawed and allowed to stand to reach room temperature; • (2). CellTiter-Glo substrate was allowed to stand to reach room temperature; • (3). 10 mL of CellTiter-Glo buffer was added to CellTiter-Glo substrate in a bottle to dissolve the substrate to formulate CellTiter-Glo working solution; • (4). […] The culture plates were left at room temperature for 10 minutes to stabilize the luminescence signal; • (9). The luminous signal was detected on the 2104 En Vision plate reader. • 6. […]
(In general: Cellular ATP, detected with luciferase, serves as a proxy for viable cell number.)

Series [1] can be described thus: Pharmacokinetics of compounds in mice. In kind it is in vivo, C57BL/6N mice. Conditions: for bioavailability / clearance / Vd / half-life: male, C57BL/6N, mouse, plasma; for bioavailability: read-out: Bioavailability F; for Vd: read-out: Apparent volume of distribution; for half-life: read-out: Elimination half-life (converted). From the text:
In this study, C57BL/6N male mice were selected as the test animals, and the LC/MS/MS method was used to quantitatively determine the drug concentration in the plasma of mice intravenously or orally administered the test compounds, so as to evaluate the pharmacokinetic profile of the test compounds in mice.
C57BL/6N mice (male, 20-30 g, 7-10 weeks old, Beijing Vital River).
A clear solution or suspension of the test compound was intravenously injected into C57BL/6N mice (fasted overnight) via tail or given to C57BL/6N mice (fasted overnight) by gavage. For intravenous injection administration, blood was collected from the cheek at 0 h (before administration) and 0.083, 0.25, 0.5, 1, 2, 4, 6, 8, and 24 h after administration. Each sample was collected about 0.05 mL. Heparin sodium was added to anti-coagulate. Plasma samples were collected and placed on wet ice, and centrifuged within 1 hour to separate the plasma (centrifugation conditions: 6000 g, 3 minutes, 2-8° C.). Blood samples were stored in a −80° C. refrigerator before analysis; For oral gavage administration, blood was collected from the cheek at 0 h (before administration) and 0.083, 0.25, 0.5, 1, 2, 4, 6, 8, 24 h after administration. Each sample was collected about 0.05 mL. Heparin sodium was added to anti-coagulate. Plasma samples were collected and placed on wet ice, and centrifuged within 1 hour to separate the plasma (centrifugation conditions: 6000 g, 3 minutes, 2-8° C.). Blood samples were stored in a −80° C. refrigerator before analysis. Through blood drug concentration data at different time points, Phoenix WinNonlin8.2.0 was used to calculate pharmacokinetic parameters, providing parameters such as AUC0-t, AUC0-∞, MRT0-∞, Cmax, Tmax, and T1/2, etc. and their mean and standard deviation.

[2] abbreviates: administration by gavage, 10 mg/kg.

Where two headings read alike, the source gives them in different places.

In general, IC50 refers to the concentration that gives 50% inhibition. A low value points to higher potency. What is called bioavailability is the share of a dose that reaches the circulation, judged against a reference dose that is usually intravenous. As a reminder, the clearance is a measure of how efficiently the substance is removed, as volume per time. Low values mean a low capacity for elimination, high ones a high capacity for elimination. A word on the half-life: it is the time needed for the level to fall by half in the phase considered.

As to `COCCOc1cc(NC(=O)NCc2ccc3c(C4CCC(=O)NC4=O)coc3c2)cc(Cl)c1C` (centres unmarked) [WX005], in the series on DMS114, the “Max. IR” value came to 89.45% and half-maximal inhibition (IC50) required 6.1 nM. Besides, in series [1] (setting [2]), the “Area under the plasma concentration-time curve (0-inf)” value (“Area” below) turned out to be 108.89 µM·h, the Peak concentration came out at 23.27 µM and the Time to peak was determined as 1.00 h. Besides, in series [1] (intravenous injection, 1 mg/kg), the “Area” value was determined as 14.34 µM·h, the clearance is 2.3 mL/min/kg, the Vd was 0.35 L/kg and the half-life was 163 min. Besides, the bioavailability in series [1] (PO 10 mg/kg vs IV 1 mg/kg) is 75.9%.

For `COCCOc1cc(NC(=O)NCc2ccc3c(C4CCC(=O)NC4=O)noc3c2)cc(Cl)c1C` (centres unmarked) [WX013], in the series on DMS114, the “Max. IR” value came to 87.56% and the IC50 was determined as 2.1 nM. Moreover, in series [1] (setting [2]), the “Area” value was 40.90 µM·h, the Peak concentration stood at 3.06 µM and the Time to peak stood at 2.67 h. In series [1] (intravenous injection, 2 mg/kg), the “Area” value came to 37.03 µM·h, the clearance was 1.84 mL/min/kg, the Vd was found to be 0.44 L/kg and the half-life was 307 min. In series [1] (PO 10 mg/kg vs IV 2 mg/kg), the bioavailability is 22.1%.
